Experiment in all cases: relative viability (nuclei count vs DMSO), 5 days (fraction); higher = more cells survive
Compound in experiment [1]: CCn1c(-c2nonc2N)nc2c(C#CC(C)(C)O)ncc(OC[C@H]3CCCNC3)c21 + Cc1nc(NC(=O)N2CCC[C@H]2C(N)=O)sc1-c1ccnc(C(C)(C)C(F)(F)F)c1 [Alpelisib] (partner 2 µM)
An outline of the steps:
(§1)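 Cells from lung cancer lines were seeded into 1536-well plates and, one day later, dosed by pin tool. Treatments were either a single drug or a fixed dose of an anchor drug with five library-drug doses (not always all listed) in √10 steps. After 5 days, nuclei were stained in a one-step fixation (final 0.05% Triton X-100, 1% formaldehyde, 1 ug/ml Hoechst) and counted on 4× images, and relative viability is the treated-to-vehicle nuclei ratio, as the median of duplicate plates.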

Compound in experiment [2]: CCn1c(-c2nonc2N)nc2c(C#CC(C)(C)O)ncc(OC[C@H]3CCCNC3)c21 + O=C(CCCCCCC(=O)Nc1ccccc1)NO [Vorinostat] (partner 1 µM)
Put shortly: as §1

Compound in experiment [3]: CCOC1=CC=CC=C1N=NC2=C(NN(C2=O)C3=NC(=CS3)C4=CC=CC=C4)C [BAM7] + Nc1nc2[nH]cc(CCc3ccc(C(=O)N[C@@H](CCC(=O)O)C(=O)O)cc3)c2c(=O)[nH]1 [Pemetrexed] (partner 0.2 µM)
Put shortly: as §1

Compound in experiment [4]: CCOC1=CC=CC=C1N=NC2=C(NN(C2=O)C3=NC(=CS3)C4=CC=CC=C4)C [BAM7] + C[C@@H](Oc1cc(-c2cnn(C3CCNCC3)c2)cnc1N)c1c(Cl)ccc(F)c1Cl [Crizotinib] (partner 1 µM)
An outline of the steps:
as §1

Data on one cell line can be found in the supplement of paper PMC10307832.

On to UMC-11, for which the relative viability came out at 1.04 in experiment [1] (first compound 0.01 µM); 0.974 in experiment [1] (first compound 0.03162 µM); 0.969 in experiment [1] (first compound 0.1 µM); 0.96 in experiment [1] (first compound 0.3162 µM); 0.976 in experiment [1] (first compound 1 µM); 0.423 in experiment [2] (first compound 0.01 µM). For the same cell line, the relative viability in experiment [2] (first compound 0.03162 µM) is 0.375; in experiment [2] (first compound 0.1 µM) it was 0.357; in experiment [2] (first compound 0.3162 µM), 0.316; in experiment [2] (first compound 1 µM), 0.346; in experiment [3] (first compound 0.5 µM) it was 0.85; in experiment [3] (first compound 5 µM), 0.912. Besides, the relative viability in experiment [3] (first compound 15.81 µM) stood at 0.847; in experiment [3] (first compound 50 µM), 0.839; in experiment [4] (first compound 0.5 µM), 0.661; in experiment [4] (first compound 5 µM), 0.786; in experiment [4] (first compound 15.81 µM) it was 0.624; in experiment [4] (first compound 50 µM), 0.636.
